Assay results reported in US4118506A, “Pharmaceutical compositions containing 1,3-dithiol-2-ylidene malonate derivatives” (Nihon Nohyaku Co., Ltd., priority 1976, dated 1978).

Legend:
[1] = tested on: acute liver damage induced by carbon tetrachloride; assay: protective effect on acute liver damage associated with centrilobular necrosis, carbon tetrachloride model; type: in vivo, mouse (dd strain); conditions: 250 mg/kg oral 6 h before CCl4, 24 h after CCl4; for p-GPT: values over 1,000 taken as 1,000; for Liver Damage Index: 0 normal, 2 slightly recognized, 4 clearly observable, 6 heavy damage, average of 5 to 6 mice
Excerpt: Carbon tetrachloride (CCl4) administration induces centrilobular necrosis of the liver associated with loss of diphosphopyridine nucleotide, hepatic glycogen, coenzyme A and increase in neutral fat. Release of several enzymes from the hepatocytes, and increase of enzyme activities in the plasma are recognized as the result of the damage of the liver. A suitable means for evaluating the degree of damage induced by CCl4 or the degree of protection afforded by drugs is to study the plasma glutamic-pyruvic transaminase (p-GPT) activity.
Methods: The test compounds were dissolved or suspended in olive oil and administered orally at the dose of 250 mg/kg to the mice (Four-week-old male mice-dd strain). After 6 hours, CCl4 was administered orally (0.05 ml/kg as olive oil solution). Animals were killed 24 hours after CCl4 administration, and the liver was grossly observed. The plasma was obtained by centrifugation. Activities of p-GPT were determined by the method of Reitman and Frankel and expressed in Karmen units.
Score for liver damage index was as follows:
Each figure indicates average of 5 to 6 mice. Values of p-GPT over 1,000 Karmen unit regarded as 1,000 for calculation of average for convenience.

[2] = tested on: acute liver damage induced by bromobenzene; assay: protective effect on acute liver damage associated with centrilobular necrosis, bromobenzene model; type: in vivo, rat (SD); conditions: bromobenzene 0.75 ml/kg oral; 100 mg/kg oral 6 h before; 24 h after
Procedure: (§1) Bromobenzene (hereinafter abbreviated as BB), Dimethylnitrosamine (hereinafter abbreviated as DMN) and chloroform (hereinafter abbreviated as CF) resemble carbon tetrachloride in inducing liver damage associated with centrilobular necrosis.
(§2) Test compound or anethol trithion was orally administered to animal at the dose of 100 mg/kg. Twenty four hours after it (in the case of dimethylnitrosamine, exceptionally fifteen hours after it) the animals were sacrificed and blood samples were collected. Indices of hepatotoxicity adoptable in each chemical were measured, from which the efficacy of the compound was evaluated.
BB male rat 0.75 oral p-GPT activity

[3] = tested on: acute liver damage induced by dimethylnitrosamine; assay: protective effect on acute liver damage associated with centrilobular necrosis, dimethylnitrosamine model; type: in vivo, mouse (dd); conditions: dimethylnitrosamine 0.05 ml/kg i.p.; 100 mg/kg oral 6 h before; 15 h after
Procedure: as §1, §2
DMN male mouse 0.05 intraper-

[4] = tested on: acute liver damage induced by chloroform; assay: protective effect on acute liver damage associated with centrilobular necrosis, chloroform model; type: in vivo, mouse (dd); conditions: chloroform 0.2 ml/kg oral; 100 mg/kg oral 6 h before; 24 h after
Procedure: as §1, §2
CF male mouse 0.2 oral p-GPT activity

[5] = tested on: acute liver damage induced by allyl alcohol; assay: protective effect on acute liver damage associated with periportal necrosis, allyl alcohol model; type: in vivo, mouse (dd strain); conditions: 250 mg/kg oral 6 h before allyl alcohol 0.075 ml/kg oral; 24 h after
Procedure: The compound of this invention or anethol trithion was orally administered to the male mouse (4 week/old, dd strain) at the dose of 250 mg/kg. Six hours after it, allyl alcohol was orally administered at the dose of 0.075 ml/kg. Twenty four hours after it, the animals were sacrificed to collect blood samples.

[6] = tested on: acute liver damage induced by D-galactosamine; assay: protective effect on acute hepatitis with mesenchymal reaction and discrete lobular necrosis, D-galactosamine model; type: in vivo, rat (SD strain); conditions: 250 mg/kg oral 6 h before D-galactosamine i.p.
Procedure: D-Galactosamine is a compound which induces a discrete lobular necrosis associated with mesenchymal reaction similar to the change observed in human viral hepatitis, so that it is frequently used in producing a model for viral hepatitis.
The compound of this invention or anethol trithion was administered orally to the male rat (SD strain) at the dose of 250 mg/kg. Six hours after it, D-galactosamine was intraperitoneally administered at the dose of 600 mg/kg. Four hours after it, an additional 300 mg/kg was administered intraperitoneally. Eight hours after it, the animals were sacrificed to collect the blood samples. P-GPT activity and triglyceride in the liver were measured to evaluate the effect of the compound of this invention.

[7] = tested on: bile flow and excretion of biliary salt; assay: cholagogic action: bile flow and biliary salt excretion; type: in vivo, rat (SD-JCL strain); set-up: key to excretion of biliary salt: relative to 1 h pre-drug amount taken as 100
Procedure: The male rat (4 week-old, SD-JCL strain) was anesthetized with sodium pentobarbital (37.5 mg/kg, intraperitoneal injection). The abdominal cavity was opened through a midline incision. The common bile duct was catheterized with polyethylene tube o.d. 0.8 mm. The catheter was brought to the outside through the abdominal incision wound prior to closing. Bile was collected from the catheter continuously with time intervals of one hour. The quantity of bile produced in one hour was determined by weighing and that of biliary salt was determined by enzymatic method (Ikagaku Jikkenho Koza 1B, Biological Constituents II, edited by Tamino […]). The amount of biliary salts was represented as chloic acid equivalent. In the representation of the results, the quantities of bile and biliary salts produced in one hour prior to the administration of drug were taken as 100. […] As reference, anethol trithion was used.

[8] = tested on: glucose metabolic function of liver; assay: effect on glucose metabolism (blood sugar); type: in vivo, mouse; conditions: for Blood Sugar: 250 mg/kg oral 6 h before glucose 4.0 g/kg
Procedure: Methods: The test compounds dissolved in olive oil and administered orally at the dose of 250 mg/kg to the mice. After 6 hours, 4.0 g/kg of glucose was orally administered. The same amount of glucose was given to the control animals. 0.02 ml of blood was taken from caudal vein of the mice at 30, 60, 90 and 120 min. after glucose administration. Blood sugar was measured by the procedure of Somogyi-Nelson. Number of animals used was 5 to 6 mice for each treatment.

[9] = tested on: alcohol metabolic function of liver; assay: effect on concentration of ethyl alcohol in the blood; type: in vivo, mouse; conditions: 250 mg/kg oral 6 h before ethanol 1,000 mg/kg
Procedure: The test compounds are dissolved or suspended in olive oil and administered orally at the dose of 250 mg/kg to the mice. After 6 hours, 1,000 mg/kg of ethyl alcohol was given orally. Blood was taken in a capillary from caudal vein at the time indicated in the results. The plasma was obtained by centrifugation. The concentration of ethyl alcohol in the plasma was measured by FID type gas liquid chromatography. Five mice were used for each group.

[10] = tested on: fatty liver induced by ethionine; assay: effect on fatty liver, ethionine model; type: in vivo, mouse (dd-strain); conditions: 250 mg/kg oral, simultaneously with (0 hr) ethionine 200 mg/kg i.p.
Excerpt: There are known many factors inducing fatty liver. But, the fatty liver is grouped into a couple of patterns from the mechanism of lipid accumulation or metabolism of lipoprotein in the liver. Ethionine is a typical example which induces first pattern of fatty liver. It inhibits RNA and protein synthesis and destroys polysome of the liver cell. Fatty liver is induced by inhibition of the protein synthesis and disturbance of lipoprotein secretion.
Usually, fatty liver is closely related to the accumulation of triglyceride in the liver. In the present example, the degree of fatty liver and protective or therapeutic effect on the fatty liver was evaluated by measurement of triglyceride content in the liver.
The compounds of this invention and methionine were independently dissolved or suspended into olive oil and administered orally to the male mouse (4 week-old dd-strain) at the dose of 250 mg/kg. One hour before it, simultaneously with it or one hour after it, ethionine dissolved in equimolar NaOH solution was administered intraperitoneally at the dose of 200 mg/kg. Twenty four hours after the administration of ethionine, the animals were sacrificed and triglyceride content in the liver was determined by chromotropic acid method.

[11] = tested on: fatty liver induced by carbon tetrachloride; assay: therapeutic effect on fatty liver, carbon tetrachloride model; type: in vivo, rat (SD strain)
Procedure: Carbon tetrachloride also induces fatty liver, but the picture of disease differs from the case of ethionine-induced fatty liver. Carbon tetrachloride is generally considered to damage microsome and thereby to inhibit protein synthesis and induce fatty liver.
Carbon tetrachloride was subcutaneously administered to 36 week-old male rats (SD strain) for 4 days at the dose of 1 ml/kg. The treated animals were left for 3 days after the last administration to maximize the manifestation of fatty liver.
Administration of Compound 4 was commenced on the fourth day after the administration of carbon tetrachloride was completed. It was orally given everyday for 10 days at the dose of 50 or 250 mg/kg. On the 11th day, the animals were sacrificed by exsanguination. The therapeutic effect was evaluated by determining the content of lipid in the liver (triglyceride and total lipid) and examining the histopathological changes. Triglyceride and total lipid were determined colorimetrically by chromotropic acid method and Bragdon's oxidation method, respectively.
Indices for the histopathological change is as follows: […]

## COc1ccc(-c2cc(=S)ss2)cc1 [Anethol trithion, reference compound]
[1]
  p-GPT: 38 Karmen units
[2]
  BSP: 12.9 ± 5.5 mg/dL
  p-GPT: 28 ± 4.1 Karmen unit
[3]
  BSP: 17.6 ± 2.7 mg/dL
  p-GPT: 192 ± 54 Karmen unit
[4]
  p-GPT: > 1000 Karmen unit
[5]
  BSP: 19.3 ± 4.6
[6]
  Triglyceride in the liver: 9.2 ± 1.5 mg/g
[7]; 200 mg/kg oral, 5 hours after treatment, before treatment = 100
  excretion of biliary salt: 33 ± 4.0
[7]; before treatment, 1 hour, taken as 100 (normalisation)
  excretion of biliary salt: 100

## CC(C)COC(=O)C(C(=O)OCC(C)C)=C1SC=CS1 [Compound 6]
[1]
  Liver Damage Index: 0.4
  p-GPT: 75 Karmen units

## CCOC(=O)C(C(=O)OCC)=C1SC=CS1 [Compound 2, Diethyl 1,3-dithiol-2-ylidene malonate]
[1]
  Liver Damage Index: 0.2
  p-GPT: 36 Karmen units
[8]; 0 min
  Blood Sugar, percent of 0 min value: 100%
  Blood Sugar: 136 ± 20.4 mg/dL
[8]; 30 min
  Blood Sugar: 295 ± 22.3 mg/dL
  Blood Sugar, percent of 0 min value: 217%
[8]; 60 min
  Blood Sugar: 251 ± 19.6 mg/dL
  Blood Sugar, percent of 0 min value: 185%
[8]; 90 min
  Blood Sugar: 202 ± 12.3 mg/dL
  Blood Sugar, percent of 0 min value: 149%
[8]; 120 min
  Blood Sugar: 158 ± 15.5 mg/dL
  Blood Sugar, percent of 0 min value: 116%

## CCCCOC(=O)C(C(=O)OCCCC)=C1SC=CS1 [Compound 5]
[1]
  Liver Damage Index: 0.4
  p-GPT: 52 Karmen units

## CCOC(=O)C(C(=O)OC(C)C)=C1SC=CS1 [Compound 7, Ethyl isopropyl 1,3-dithiol-2-ylidene malonate]
[1]
  Liver Damage Index: 0.8
  p-GPT: 102 Karmen units
[9]; 0 min
  Concentration of Ethyl alcohol in Plasma: 30 ± 14 ppm
[9]; 5 min
  Concentration of Ethyl alcohol in Plasma: 830 ± 180 ppm
[9]; 15 min
  Concentration of Ethyl alcohol in Plasma: 799 ± 154 ppm
[9]; 30 min
  Concentration of Ethyl alcohol in Plasma: 448 ± 208 ppm
[9]; 60 min
  Concentration of Ethyl alcohol in Plasma: 158 ± 113 ppm
[9]; 120 min
  Concentration of Ethyl alcohol in Plasma: 12 ± 2 ppm

## CSCC[C@H](N)C(=O)O [Methionine, reference compound]
[10]
  Triglyceride: 10.3 ± 0.83 mg/g-liver
[11]; 250 mg/kg, 10 days
  Total lipid: 146.1 ± 13.0 mg/g-liver
  Triglyceride: 47.3 ± 7.3 mg/g-liver
[11]; carbon tetrachloride
  therapeutic effect against fatty liver: hardly exhibited a therapeutic effect

## COC(=O)C(C(=O)OCC(C)C)=C1SC=CS1 [Compound 8, Methyl isobutyl 1,3-dithiol-2-ylidene malonate]
[1]
  Liver Damage Index: 0.6
  p-GPT: 88 Karmen units

## CCCOC(=O)C(C(=O)OCCC)=C1SC=CS1 [Compound 3, Di-n-propyl 1,3-dithiol-2-ylidene malonate]
[1]
  Liver Damage Index: 0.1
  p-GPT: 36 Karmen units

## COC(=O)C(C(=O)OC)=C1SC=CS1 [Compound 1]
[1]
  Liver Damage Index: 0.4
  p-GPT: 138 Karmen units
